Test results from patent US9834513B2, “Benzylamine derivatives” (KALVISTA PHARMACEUTICALS LIMITED, priority 2013, dated 2017).

Experiments:
Human plasma kallikrein = Human plasma kallikrein (Homo sapiens (Human), UniProt P03952); assay: Determination of the IC50 for plasma kallikrein; format: biochemical; conditions: 37° C., fluorogenic substrate H-DPro-Phe-Arg-AFC; read-out: IC50 (human PKal)
Protocol: Human plasma kallikrein (Protogen) was incubated at 37° C. with the fluorogenic substrate H-DPro-Phe-Arg-AFC and various concentrations of the test compound. Residual enzyme activity (initial rate of reaction) was determined by measuring the change in optical absorbance at 410 nm and the IC50 value for the test compound was determined.

Human KLK1 = Human KLK1 (Homo sapiens (Human), UniProt P06870); assay: Determination of the IC50 for KLK1; format: biochemical; conditions: 37° C., fluorogenic substrate H-DVal-Leu-Arg-AFC
Human KLK1, sequence (P06870 25-262): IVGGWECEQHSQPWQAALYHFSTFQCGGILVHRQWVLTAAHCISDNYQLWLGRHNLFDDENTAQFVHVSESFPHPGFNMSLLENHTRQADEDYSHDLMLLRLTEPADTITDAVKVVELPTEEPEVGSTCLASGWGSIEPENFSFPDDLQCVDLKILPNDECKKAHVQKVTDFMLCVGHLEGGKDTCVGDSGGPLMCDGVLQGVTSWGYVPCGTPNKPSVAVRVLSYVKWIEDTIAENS
Protocol: KLK1 inhibitory activity in vitro was determined using standard published methods (see e.g. Johansen et al., Int. J. Tiss. Reac. 1986, 8, 185; Shori et al., Biochem. Pharmacol., 1992, 43, 1209; Stürzebecher et al., Biol. Chem. Hoppe-Seyler, 1992, 373, 1025). Human KLK1 (Callbiochem) was incubated at 37° C. with the fluorogenic substrate H-DVal-Leu-Arg-AFC and various concentrations of the test compound. Residual enzyme activity (initial rate of reaction) was determined by measuring the change in optical absorbance at 410 nm and the IC50 value for the test compound was determined.

trypsin = trypsin (Homo sapiens, UniProt P07477); assay: Determination of enzyme selectivity: trypsin; format: biochemical; conditions: substrate at Km concentration
Protocol: Human serine protease enzymes plasmin, thrombin, trypsin, Factor Xa and Factor XIIa were assayed for enzymatic activity using an appropriate fluorogenic substrate. Protease activity was measured by monitoring the accumulation of liberated fluorescence from the substrate over 5 minutes. The linear rate of fluorescence increase per minute was expressed as percentage (%) activity. The Km for the cleavage of each substrate was determined by standard transformation of the Michaelis-Menten equation.

diabetic rats = conditions: cited from earlier work

Human plasma kallikrein, sequence (P03952 391-638): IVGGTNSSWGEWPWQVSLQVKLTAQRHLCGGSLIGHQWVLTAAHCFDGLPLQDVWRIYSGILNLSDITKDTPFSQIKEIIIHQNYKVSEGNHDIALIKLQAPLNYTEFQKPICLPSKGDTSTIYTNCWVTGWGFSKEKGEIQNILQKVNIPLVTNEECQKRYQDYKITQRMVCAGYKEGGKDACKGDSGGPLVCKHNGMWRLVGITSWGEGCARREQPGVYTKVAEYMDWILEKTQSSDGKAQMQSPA
Human plasma kallikrein, sequence (P03952 20-390 partner): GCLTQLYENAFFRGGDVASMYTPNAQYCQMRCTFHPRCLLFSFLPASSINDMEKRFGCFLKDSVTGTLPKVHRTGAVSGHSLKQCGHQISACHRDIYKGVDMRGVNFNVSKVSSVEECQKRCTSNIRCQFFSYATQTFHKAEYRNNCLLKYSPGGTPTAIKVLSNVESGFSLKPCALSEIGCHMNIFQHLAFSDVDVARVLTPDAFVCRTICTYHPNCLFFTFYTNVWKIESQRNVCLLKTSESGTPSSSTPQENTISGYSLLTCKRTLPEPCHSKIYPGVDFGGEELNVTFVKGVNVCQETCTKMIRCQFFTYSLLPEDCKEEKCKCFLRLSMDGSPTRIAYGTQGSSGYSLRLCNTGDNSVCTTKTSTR

IC50 (trypsin) | Compound | IC50 (Human plasma kallikrein) | IC50 (Human KLK1) | other results
 | Cc1cc(C(=O)NCc2ccc(CN)cc2)c(C)n1Cc1csc(-c2ccoc2)n1 [Example 39, 2,5-Dimethyl-1-(2-furan-3-yl-thiazol-4-ylmethyl)-1H-pyrrole-3-carboxylic acid 4-aminomethyl-benzylamide] | 1.09 µM | > 10 µM | 
> 40 µM | Cc1cc(C(=O)NCc2ccc(CN)cc2)c(C)n1Cc1csc(-c2ccccc2)n1 [Example 1, 2,5-Dimethyl-1-(2-phenyl-thiazol-4-ylmethyl)-1H-pyrrole-3-carboxylic acid 4-aminomethyl-benzylamide] |  |  | 
26.6 µM | NCc1ccc(CNC(=O)c2cn(Cc3csc(-c4ccccc4)n3)nc2C(F)(F)F)cc1 [Example 83, 1-(2-Phenyl-thiazol-4-ylmethyl)-3-trifluoromethyl-1H-pyrazole-4-carboxylic acid 4-aminomethyl-benzylamide] |  |  | 
 | Cc1cc(C(=O)NCc2ccc(CN)cc2)c(C)n1Cc1ccc(-c2ccncc2)s1 [Example 21, 2,5-Dimethyl-1-(5-pyridin-4-yl-thiophen-2-ylmethyl)-1H-pyrrole-3-carboxylic acid 4-aminomethyl-benzylamide] | 4.52 µM | 7.5 µM | 
> 40 µM | Cc1cc(CN)ccc1CNC(=O)c1cc(C)n(Cc2csc(-c3ccccc3)n2)c1C [Example 2, 2,5-Dimethyl-1-(2-phenyl-thiazol-4-ylmethyl)-1H-pyrrole-3-carboxylic acid 4-aminomethyl-2-methyl-benzylamide] |  |  | 
 | N=C(N)c1ccc(CNC(=O)c2cnn(Cc3ccccc3)c2)cc1 [ASP-440] |  |  | retinal vascular permeability and retinal blood flow abnormalities (diabetic rats): ameliorated
 | Cc1cc(C(=O)NCc2ccc(CN)cc2)c(C)n1Cc1cc(-c2ccccc2)cs1 [Example 9, 2,5-Dimethyl-1-(4-phenyl-thiophen-2-ylmethyl)-1H-pyrrole-3-carboxylic acid 4-aminomethyl-benzylamide] | 0.543 µM | > 10 µM | 

Compound | IC50 (trypsin) | IC50 (Human plasma kallikrein) | IC50 (Human KLK1) | other results
NCc1ccc(CNC(=O)c2cn(Cc3ccccc3)nc2-c2ccccc2)cc1 [Example 84, 1-Benzyl-3-phenyl-1H-pyrazole-4-carboxylic acid 4-aminomethyl-benzylamide] | > 40 µM |  |  | 
